Laboratory results published in PMC8617627, “Novel DYRK1A Inhibitor Rescues Learning and Memory Deficits in a Mouse Model of Down Syndrome” (Pharmaceuticals, 2021).
Like-named read-outs stand apart in the source and are kept apart here.

What was measured:
Test in all cases: Kinase profile (33P ATP filter binding)
Assay type in all cases: biochemical
HIPK2 = HIPK2 (Homo sapiens, UniProt Q9H2X6); conditions: read-out: Remaining protein kinase activity
p38a MAPK = p38a MAPK (Homo sapiens, UniProt Q16539)
Sequence of p38a MAPK (Q16539 whole entry): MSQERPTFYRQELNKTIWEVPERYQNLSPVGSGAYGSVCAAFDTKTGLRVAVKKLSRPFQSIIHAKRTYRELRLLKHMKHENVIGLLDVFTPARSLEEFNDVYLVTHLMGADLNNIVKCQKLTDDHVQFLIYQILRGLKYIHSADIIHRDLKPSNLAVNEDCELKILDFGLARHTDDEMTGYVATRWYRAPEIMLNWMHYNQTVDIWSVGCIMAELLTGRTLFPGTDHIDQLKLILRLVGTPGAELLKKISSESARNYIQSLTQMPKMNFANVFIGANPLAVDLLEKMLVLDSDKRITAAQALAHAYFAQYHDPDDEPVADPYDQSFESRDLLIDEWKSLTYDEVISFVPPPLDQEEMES

TSSK1 = molecular target: T1, TSSK1 (Homo sapiens, UniProt Q9BXA7); conditions: read-out: Remaining protein kinase activity
T1 sequence (Q9BXA7 1-367): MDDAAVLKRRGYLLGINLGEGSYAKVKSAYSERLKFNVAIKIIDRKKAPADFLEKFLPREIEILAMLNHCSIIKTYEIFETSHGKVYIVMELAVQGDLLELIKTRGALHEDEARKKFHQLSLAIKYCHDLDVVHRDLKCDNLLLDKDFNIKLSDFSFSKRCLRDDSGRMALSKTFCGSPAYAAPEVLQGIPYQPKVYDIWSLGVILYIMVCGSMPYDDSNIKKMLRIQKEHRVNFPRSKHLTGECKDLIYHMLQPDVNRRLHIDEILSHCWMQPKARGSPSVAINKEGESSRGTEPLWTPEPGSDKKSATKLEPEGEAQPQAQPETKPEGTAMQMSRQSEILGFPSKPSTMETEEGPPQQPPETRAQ

S6K1 = S6K1 (Homo sapiens, UniProt P23443); conditions: read-out: Remaining protein kinase activity
Sequence of S6K1 (P23443 whole entry, species assumed): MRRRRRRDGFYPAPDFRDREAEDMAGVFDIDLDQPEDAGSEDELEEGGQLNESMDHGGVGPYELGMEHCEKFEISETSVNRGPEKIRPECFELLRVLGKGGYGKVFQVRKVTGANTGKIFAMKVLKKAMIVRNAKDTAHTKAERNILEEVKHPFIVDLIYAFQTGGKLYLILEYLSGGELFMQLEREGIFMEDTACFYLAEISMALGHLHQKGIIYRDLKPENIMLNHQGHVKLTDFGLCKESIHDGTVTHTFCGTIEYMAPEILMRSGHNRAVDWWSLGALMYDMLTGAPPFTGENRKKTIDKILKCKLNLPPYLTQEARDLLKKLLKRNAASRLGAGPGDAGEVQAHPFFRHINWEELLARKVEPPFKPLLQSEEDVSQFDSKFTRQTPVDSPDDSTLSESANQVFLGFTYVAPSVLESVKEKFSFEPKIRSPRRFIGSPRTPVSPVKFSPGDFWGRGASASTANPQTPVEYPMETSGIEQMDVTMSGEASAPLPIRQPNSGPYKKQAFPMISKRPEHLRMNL

JNK2 = JNK2 (Homo sapiens, UniProt P45984)
Sequence of JNK2 (P45984 whole entry, species assumed): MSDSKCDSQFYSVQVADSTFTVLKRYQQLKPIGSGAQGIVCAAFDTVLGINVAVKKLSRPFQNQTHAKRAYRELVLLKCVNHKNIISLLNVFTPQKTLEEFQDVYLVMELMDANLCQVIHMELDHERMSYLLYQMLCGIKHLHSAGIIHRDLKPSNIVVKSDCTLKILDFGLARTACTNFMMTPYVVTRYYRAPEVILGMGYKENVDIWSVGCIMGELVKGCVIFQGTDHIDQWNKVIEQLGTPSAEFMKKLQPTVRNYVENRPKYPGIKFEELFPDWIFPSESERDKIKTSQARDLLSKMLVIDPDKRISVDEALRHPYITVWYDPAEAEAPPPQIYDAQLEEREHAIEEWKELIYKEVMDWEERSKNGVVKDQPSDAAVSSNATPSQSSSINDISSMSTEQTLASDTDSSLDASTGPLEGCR

EPH-B3 = molecular target: T2, EPH-B3 (Homo sapiens, UniProt P54753); conditions: read-out: Remaining protein kinase activity
T2 sequence (P54753 34-998): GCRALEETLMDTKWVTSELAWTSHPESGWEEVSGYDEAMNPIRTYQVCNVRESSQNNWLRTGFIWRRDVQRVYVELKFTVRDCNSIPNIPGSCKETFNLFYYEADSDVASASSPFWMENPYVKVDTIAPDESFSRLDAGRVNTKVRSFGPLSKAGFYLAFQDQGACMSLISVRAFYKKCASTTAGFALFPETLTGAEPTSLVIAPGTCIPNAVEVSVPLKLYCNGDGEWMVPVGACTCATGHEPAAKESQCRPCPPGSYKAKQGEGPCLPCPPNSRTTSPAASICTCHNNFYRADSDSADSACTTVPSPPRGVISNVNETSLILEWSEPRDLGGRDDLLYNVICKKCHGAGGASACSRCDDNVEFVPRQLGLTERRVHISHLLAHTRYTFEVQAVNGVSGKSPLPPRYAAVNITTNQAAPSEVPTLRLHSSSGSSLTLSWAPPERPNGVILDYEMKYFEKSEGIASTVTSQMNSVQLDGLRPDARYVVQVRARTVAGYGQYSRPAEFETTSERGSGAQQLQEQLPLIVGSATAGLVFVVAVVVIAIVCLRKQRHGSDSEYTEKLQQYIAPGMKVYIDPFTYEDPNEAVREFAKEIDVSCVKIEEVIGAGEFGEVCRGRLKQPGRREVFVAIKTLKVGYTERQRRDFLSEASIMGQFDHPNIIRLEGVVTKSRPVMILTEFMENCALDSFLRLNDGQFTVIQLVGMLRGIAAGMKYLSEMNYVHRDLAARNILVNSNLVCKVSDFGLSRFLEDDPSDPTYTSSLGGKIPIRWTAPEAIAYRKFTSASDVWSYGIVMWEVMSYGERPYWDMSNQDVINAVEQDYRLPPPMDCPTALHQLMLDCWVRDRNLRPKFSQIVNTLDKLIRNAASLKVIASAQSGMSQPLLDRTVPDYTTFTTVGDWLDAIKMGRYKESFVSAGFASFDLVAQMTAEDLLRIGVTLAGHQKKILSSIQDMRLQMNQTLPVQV

MINK1 = MINK1 (Homo sapiens, UniProt Q8N4C8); conditions: read-out: Remaining protein kinase activity
Sequence of MINK1 (Q8N4C8 whole entry): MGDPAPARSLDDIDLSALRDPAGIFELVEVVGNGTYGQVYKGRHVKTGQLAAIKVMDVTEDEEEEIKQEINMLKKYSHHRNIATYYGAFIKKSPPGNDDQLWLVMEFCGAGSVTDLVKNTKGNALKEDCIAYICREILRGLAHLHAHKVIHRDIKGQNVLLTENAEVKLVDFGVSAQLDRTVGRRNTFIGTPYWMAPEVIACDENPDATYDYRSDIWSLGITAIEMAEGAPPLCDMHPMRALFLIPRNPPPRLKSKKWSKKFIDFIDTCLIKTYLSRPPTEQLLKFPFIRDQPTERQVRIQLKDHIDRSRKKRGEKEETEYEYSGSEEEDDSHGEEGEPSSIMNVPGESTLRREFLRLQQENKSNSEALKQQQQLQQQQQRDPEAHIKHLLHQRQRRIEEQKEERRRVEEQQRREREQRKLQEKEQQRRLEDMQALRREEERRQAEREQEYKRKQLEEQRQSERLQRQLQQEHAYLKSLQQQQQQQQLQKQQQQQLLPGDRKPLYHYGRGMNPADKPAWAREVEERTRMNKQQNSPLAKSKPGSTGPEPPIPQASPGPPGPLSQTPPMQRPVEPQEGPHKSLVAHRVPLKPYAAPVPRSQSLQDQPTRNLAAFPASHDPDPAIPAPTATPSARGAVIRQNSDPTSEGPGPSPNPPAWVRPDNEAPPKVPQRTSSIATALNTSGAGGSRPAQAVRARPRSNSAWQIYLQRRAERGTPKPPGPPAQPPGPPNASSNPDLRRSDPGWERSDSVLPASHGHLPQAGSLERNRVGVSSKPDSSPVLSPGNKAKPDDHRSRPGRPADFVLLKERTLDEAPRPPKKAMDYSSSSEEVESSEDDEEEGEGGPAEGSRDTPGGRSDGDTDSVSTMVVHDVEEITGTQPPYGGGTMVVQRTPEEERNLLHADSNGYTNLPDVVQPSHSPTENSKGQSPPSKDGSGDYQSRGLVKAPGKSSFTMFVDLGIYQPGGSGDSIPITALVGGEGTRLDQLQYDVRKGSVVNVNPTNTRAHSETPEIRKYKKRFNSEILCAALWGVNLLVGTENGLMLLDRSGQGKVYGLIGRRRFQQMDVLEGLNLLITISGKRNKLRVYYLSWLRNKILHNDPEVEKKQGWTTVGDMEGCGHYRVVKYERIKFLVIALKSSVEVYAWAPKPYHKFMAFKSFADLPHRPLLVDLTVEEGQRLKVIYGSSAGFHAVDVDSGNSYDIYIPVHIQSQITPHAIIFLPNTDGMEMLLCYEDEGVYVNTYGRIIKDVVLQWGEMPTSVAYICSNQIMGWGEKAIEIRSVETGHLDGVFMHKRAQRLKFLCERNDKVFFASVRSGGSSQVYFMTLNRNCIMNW

TGFBR1 = molecular target: T3, TGFBR1 (Homo sapiens, UniProt P36897); conditions: read-out: Remaining protein kinase activity
T3 sequence (P36897 34-503): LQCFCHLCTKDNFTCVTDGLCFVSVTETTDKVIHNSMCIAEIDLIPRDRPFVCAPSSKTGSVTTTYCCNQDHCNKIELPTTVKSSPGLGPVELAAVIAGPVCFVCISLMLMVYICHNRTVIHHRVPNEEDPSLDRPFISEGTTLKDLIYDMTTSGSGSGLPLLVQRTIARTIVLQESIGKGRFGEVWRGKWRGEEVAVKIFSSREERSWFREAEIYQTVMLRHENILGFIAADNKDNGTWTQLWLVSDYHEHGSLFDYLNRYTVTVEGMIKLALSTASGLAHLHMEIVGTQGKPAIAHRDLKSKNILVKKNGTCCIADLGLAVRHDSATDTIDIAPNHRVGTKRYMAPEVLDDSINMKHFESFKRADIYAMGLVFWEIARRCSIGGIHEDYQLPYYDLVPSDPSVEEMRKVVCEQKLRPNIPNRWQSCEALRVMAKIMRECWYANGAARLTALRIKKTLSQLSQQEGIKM

PKBa = PKBa (Homo sapiens, UniProt P31749); conditions: read-out: Remaining protein kinase activity
PAK2 = PAK2 (Homo sapiens, UniProt Q13177); conditions: read-out: Remaining protein kinase activity
EPH-A2 = EPH-A2 (Homo sapiens, UniProt P29317); conditions: read-out: Remaining protein kinase activity
Sequence of EPH-A2 (P29317 24-976): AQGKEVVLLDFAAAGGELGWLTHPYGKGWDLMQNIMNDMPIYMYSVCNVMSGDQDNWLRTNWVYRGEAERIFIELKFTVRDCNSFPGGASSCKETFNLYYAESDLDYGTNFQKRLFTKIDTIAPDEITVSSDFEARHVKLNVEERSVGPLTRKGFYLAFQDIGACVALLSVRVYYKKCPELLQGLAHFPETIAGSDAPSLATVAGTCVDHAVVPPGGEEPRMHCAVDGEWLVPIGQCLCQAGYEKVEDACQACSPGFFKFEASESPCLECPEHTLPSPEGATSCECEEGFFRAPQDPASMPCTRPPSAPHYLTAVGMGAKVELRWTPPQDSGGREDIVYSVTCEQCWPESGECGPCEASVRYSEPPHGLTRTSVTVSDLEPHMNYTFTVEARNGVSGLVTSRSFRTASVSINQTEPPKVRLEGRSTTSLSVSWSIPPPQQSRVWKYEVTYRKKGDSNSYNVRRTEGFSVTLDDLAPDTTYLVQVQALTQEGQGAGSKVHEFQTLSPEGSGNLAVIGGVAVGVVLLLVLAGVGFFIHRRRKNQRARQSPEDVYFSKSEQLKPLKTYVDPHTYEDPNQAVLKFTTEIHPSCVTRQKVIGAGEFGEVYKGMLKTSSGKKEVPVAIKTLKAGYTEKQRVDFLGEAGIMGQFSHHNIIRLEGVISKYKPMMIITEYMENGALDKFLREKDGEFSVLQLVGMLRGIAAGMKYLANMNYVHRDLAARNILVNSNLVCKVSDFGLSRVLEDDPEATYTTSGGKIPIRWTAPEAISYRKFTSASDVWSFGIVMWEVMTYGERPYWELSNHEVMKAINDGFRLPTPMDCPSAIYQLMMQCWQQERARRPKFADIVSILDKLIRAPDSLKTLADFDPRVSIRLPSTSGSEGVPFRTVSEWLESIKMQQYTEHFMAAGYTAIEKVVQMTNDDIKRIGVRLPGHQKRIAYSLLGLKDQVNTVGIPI

Sequence of HIPK2 (Q9H2X6 whole entry): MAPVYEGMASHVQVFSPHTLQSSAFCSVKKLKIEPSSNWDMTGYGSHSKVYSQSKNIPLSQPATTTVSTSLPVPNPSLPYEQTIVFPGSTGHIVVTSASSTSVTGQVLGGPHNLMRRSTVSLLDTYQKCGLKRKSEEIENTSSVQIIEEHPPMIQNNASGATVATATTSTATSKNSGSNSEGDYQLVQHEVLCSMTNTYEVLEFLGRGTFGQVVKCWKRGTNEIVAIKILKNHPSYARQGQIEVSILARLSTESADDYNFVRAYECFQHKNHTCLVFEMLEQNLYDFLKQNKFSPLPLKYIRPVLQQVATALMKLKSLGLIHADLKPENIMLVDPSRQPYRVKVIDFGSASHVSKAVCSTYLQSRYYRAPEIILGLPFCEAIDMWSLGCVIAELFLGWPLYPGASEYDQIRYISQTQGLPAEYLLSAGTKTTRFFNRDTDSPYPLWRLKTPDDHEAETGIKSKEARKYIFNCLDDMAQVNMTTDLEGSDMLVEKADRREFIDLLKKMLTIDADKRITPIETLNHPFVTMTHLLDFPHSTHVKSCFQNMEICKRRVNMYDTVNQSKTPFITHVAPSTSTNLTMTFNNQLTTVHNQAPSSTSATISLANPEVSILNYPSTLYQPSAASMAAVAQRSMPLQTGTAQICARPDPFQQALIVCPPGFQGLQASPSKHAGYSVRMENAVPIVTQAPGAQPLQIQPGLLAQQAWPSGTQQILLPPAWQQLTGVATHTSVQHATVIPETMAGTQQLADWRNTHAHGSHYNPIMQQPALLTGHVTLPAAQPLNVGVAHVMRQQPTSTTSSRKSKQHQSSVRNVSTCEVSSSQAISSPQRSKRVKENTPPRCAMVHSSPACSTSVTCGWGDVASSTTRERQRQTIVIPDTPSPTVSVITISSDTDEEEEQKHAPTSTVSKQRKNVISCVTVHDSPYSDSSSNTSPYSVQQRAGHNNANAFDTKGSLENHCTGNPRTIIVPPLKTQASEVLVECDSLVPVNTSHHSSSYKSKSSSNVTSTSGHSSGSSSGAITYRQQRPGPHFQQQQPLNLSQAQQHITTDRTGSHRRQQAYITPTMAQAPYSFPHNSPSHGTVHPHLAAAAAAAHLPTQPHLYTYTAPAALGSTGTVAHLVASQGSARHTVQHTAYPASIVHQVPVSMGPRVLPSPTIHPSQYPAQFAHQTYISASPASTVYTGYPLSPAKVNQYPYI

## COc1ccc2sc(-c3cncc(NC(C)=O)c3)nc2c1 [PST-001, N-(5-(5-Methoxybenzo[d]thiazol-2-yl)pyridin-3-yl)acetamide]
HIPK2
  remaining activity at 1 µM: 90%
  remaining activity at 100 µM: 77%
p38a MAPK; 1 μM
  Remaining protein kinase activity: 110%
p38a MAPK; 100 μM
  Remaining protein kinase activity: 106%
TSSK1
  remaining activity at 1 µM: 124%
  remaining activity at 100 µM: 114%
S6K1
  remaining activity at 1 µM: 113%
  remaining activity at 100 µM: 81%
JNK2; 1 μM
  Remaining protein kinase activity: 126%
JNK2; 100 μM
  Remaining protein kinase activity: 129%
EPH-B3
  remaining activity at 1 µM: 147%
  remaining activity at 100 µM: 130%
MINK1
  remaining activity at 1 µM: 104%
  remaining activity at 100 µM: 88%
TGFBR1
  remaining activity at 1 µM: 112%
  remaining activity at 100 µM: 129%
PKBa
  remaining activity at 1 µM: 116%
  remaining activity at 100 µM: 106%
PAK2
  remaining activity at 1 µM: 114%
  remaining activity at 100 µM: 122%
EPH-A2
  remaining activity at 1 µM: 124%
  remaining activity at 100 µM: 119%

## COc1ccc2sc(-c3cncc(N)c3)nc2c1 [compound 1, 5-(5-Methoxybenzo[d]thiazol-2-yl)pyridin-3-amine]
HIPK2; HIPK2, 1 μM
  remaining activity at 1 µM: 79%
HIPK2; HIPK2, 100 μM
  remaining activity at 100 µM: 10%
p38a MAPK; 1 μM
  Remaining protein kinase activity: 103%
p38a MAPK; 100 μM
  Remaining protein kinase activity: 96%
TSSK1; TSSK1, 1 μM
  remaining activity at 1 µM: 107%
TSSK1; TSSK1, 100 μM
  remaining activity at 100 µM: 70%
S6K1; S6K1, 1 μM
  remaining activity at 1 µM: 118%
S6K1; S6K1, 100 μM
  remaining activity at 100 µM: 58%
JNK2; 1 μM
  Remaining protein kinase activity: 123%
JNK2; 100 μM
  Remaining protein kinase activity: 104%
EPH-B3; EPH-B3, 1 μM
  remaining activity at 1 µM: 130%
EPH-B3; EPH-B3, 100 μM
  remaining activity at 100 µM: 71%
MINK1; MINK1, 1 μM
  remaining activity at 1 µM: 108%
MINK1; MINK1, 100 μM
  remaining activity at 100 µM: 36%
TGFBR1; TGFBR1, 1 μM
  remaining activity at 1 µM: 105%
TGFBR1; TGFBR1, 100 μM
  remaining activity at 100 µM: 118%
PKBa; PKBa, 1 μM
  remaining activity at 1 µM: 120%
PKBa; PKBa, 100 μM
  remaining activity at 100 µM: 72%
PAK2; PAK2, 1 μM
  remaining activity at 1 µM: 110%
PAK2; PAK2, 100 μM
  remaining activity at 100 µM: 103%
EPH-A2; EPH-A2, 1 μM
  remaining activity at 1 µM: 112%
EPH-A2; EPH-A2, 100 μM
  remaining activity at 100 µM: 90%
